± gives the standard deviation of the averaged measurements.
Assays:
[1] = compound: C[C@H](CN(C)C)Oc1nc(Nc2cc3cccc(Cl)c3cn2)cnc1C#N; assay: surviving fraction relative to DMSO-only wells; higher = less growth inhibition; conditions: exposure time: 5 days
Procedure, shortened: (§1)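 In 384-well plates, 250–500 log-phase tumour cells per well were given 24 hours before five days of continuous exposure to inhibitors at 0.5, 1, 5, 10, 50, 100, 500 and 1000 nM. Surviving fraction is luminescence from CellTiter-Glo, normalised to the median of wells containing DMSO alone. Reading took place after 10 minutes at room temperature.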

[2] = compound: C[C@@H]1CN(CC(=O)Nc2ccc3c(c2)Cc2cccc(-c4cc(=O)cc(N5CCOCC5)o4)c2S3)C[C@H](C)O1; assay: as above; conditions: exposure time: 5 days
Procedure, shortened: as §1

Row | Test System | surviving fraction ([1]; 0.5 nM) | surviving fraction ([1]; 1 nM) | surviving fraction ([1]; 5 nM) | surviving fraction ([1]; 10 nM) | surviving fraction ([1]; 50 nM) | surviving fraction ([1]; 100 nM) | surviving fraction ([1]; 500 nM) | surviving fraction ([1]; 1000 nM) | surviving fraction ([2]; 0.5 nM) | surviving fraction ([2]; 1 nM) | surviving fraction ([2]; 5 nM) | surviving fraction ([2]; 10 nM) | surviving fraction ([2]; 50 nM) | surviving fraction ([2]; 100 nM) | surviving fraction ([2]; 500 nM) | surviving fraction ([2]; 1000 nM)
1 | HS57T BREAST | 0.943 ± 0.054 | 0.933 ± 0.048 | 1.04 ± 0.039 | 1.06 ± 0.041 | 1.03 ± 0.025 | 0.929 ± 0.057 | 0.119 ± 0.0095 | 0.0913 ± 0.011 | 1.1 ± 0.058 | 1.05 ± 0.055 | 1.16 ± 0.017 | 1.1 ± 0.03 | 1.08 ± 0.042 | 1.08 ± 0.084 | 0.945 ± 0.069 | 0.87 ± 0.041
2 | G292 BONE | 1.06 ± 0.053 | 1.02 ± 0.012 | 1.05 ± 0.021 | 1.05 ± 0.075 | 1.107 ± 0.0061 | 1.08 ± 0.061 | 0.648 ± 0.046 | 0.43 ± 0.028 | 0.9787 ± 0.009 | 1.03 ± 0.026 | 0.995 ± 0.026 | 1 ± 0.046 | 0.994 ± 0.03 | 0.977 ± 0.034 | 0.856 ± 0.053 | 0.764 ± 0.017
3 | CCK81 LARGE INTESTINE | 0.681 ± 0.1 | 0.819 ± 0.097 | 0.726 ± 0.09 | 0.739 ± 0.029 | 0.774 ± 0.15 | 0.52 ± 0.084 | 0.349 ± 0.069 | 0.374 ± 0.049 |  |  |  |  |  |  |  | 
4 | HMLE3 BREAST | 1 ± 0.081 | 0.949 ± 0.035 | 1.01 ± 0.04 | 0.998 ± 0.056 | 1.07 ± 0.069 | 1.07 ± 0.1 | 0.93 ± 0.076 | 0.735 ± 0.025 | 1 ± 0.041 | 0.914 ± 0.069 | 0.985 ± 0.082 | 0.954 ± 0.042 | 1 ± 0.058 | 0.949 ± 0.12 | 0.918 ± 0.024 | 0.807 ± 0.047
5 | HMT3552 BREAST | 0.984 ± 0.029 | 1.04 ± 0.043 | 1.08 ± 0.093 | 1.04 ± 0.036 | 1.22 ± 0.018 | 1.19 ± 0.064 | 0.121 ± 0.016 | 0.103 ± 0.01 | 0.943 | 0.938 | 0.979 | 1.01 | 0.942 | 0.855 | 0.824 | 0.739
6 | HCC70 BREAST | 1.07 ± 0.06 | 1.11 ± 0.14 | 1.01 ± 0.038 | 1.09 ± 0.034 | 1.1 ± 0.045 | 1.14 ± 0.025 | 0.639 ± 0.086 | 0.191 ± 0.021 | 1.03 ± 0.038 | 1.07 ± 0.092 | 1.1 ± 0.1 | 1.14 ± 0.07 | 1.15 ± 0.044 | 1.2 ± 0.037 | 1.1 ± 0.041 | 1.07 ± 0.02
7 | HS578T BREAST | 0.988 ± 0.17 | 1.02 ± 0.11 | 0.972 ± 0.14 | 1.04 ± 0.11 | 1.05 ± 0.041 | 0.796 ± 0.14 | 0.216 ± 0.028 | 0.191 ± 0.02 | 0.996 ± 0.12 | 0.965 ± 0.14 | 0.861 ± 0.04 | 0.883 ± 0.052 | 0.855 ± 0.13 | 0.814 ± 0.13 | 0.867 ± 0.089 | 0.69 ± 0.042
8 | HCC38 BREAST | 1.25 ± 0.22 | 1.32 ± 0.18 | 1.36 ± 0.28 | 1.3 ± 0.14 | 0.989 ± 0.06 | 0.821 ± 0.23 | 0.125 ± 0.028 | 0.0697 ± 0.013 | 0.973 ± 0.15 | 0.988 ± 0.11 | 1.08 ± 0.19 | 1.02 ± 0.17 | 0.698 ± 0.23 | 0.631 ± 0.086 | 0.418 ± 0.12 | 0.391 ± 0.06
